The values below come from patent US20120220581A1, “IMIDAZO[1,2-b]PYRIDAZINE DERIVATIVES AND THEIR USE AS PDE10 INHIBITORS” (Janssen-Cilag, S.A., priority 2009, published 2012).

A value given as a limit tells only on which side of the number the result lay.

Experiment [1] deals with apomorphine-induced stereotypy in rats. In words: Apomorphine-induced stereotypy in rats (APO). The class given is in vivo. The conditions noted are these: Rattus norvegicus, n.d.: found not active at threshold dose 2.5 mg/kg or 10 mg/kg (a). How it is done:
Apomorphine (1.0 mg/kg, i.v.)-induced stereotypy (compulsive sniffing, licking, chewing) was scored every 5 min over the first hour after injection of apomorphine, following a 1 hour interval pre-treatment with the test compound. The score system was: (3) pronounced, (2) moderate, (1) slight, and (0) absent.

Experiment [2] concerns the target T1, Rat recombinant PDE10A (rPDE10A2) (Rattus norvegicus, UniProt Q9QYJ6).
T1 construct: inferred from the Ni metal chelate purification; made in house; host or cells: Sf9 insect cells (baculovirus)
T1 sequence (Q9QYJ6 1-794): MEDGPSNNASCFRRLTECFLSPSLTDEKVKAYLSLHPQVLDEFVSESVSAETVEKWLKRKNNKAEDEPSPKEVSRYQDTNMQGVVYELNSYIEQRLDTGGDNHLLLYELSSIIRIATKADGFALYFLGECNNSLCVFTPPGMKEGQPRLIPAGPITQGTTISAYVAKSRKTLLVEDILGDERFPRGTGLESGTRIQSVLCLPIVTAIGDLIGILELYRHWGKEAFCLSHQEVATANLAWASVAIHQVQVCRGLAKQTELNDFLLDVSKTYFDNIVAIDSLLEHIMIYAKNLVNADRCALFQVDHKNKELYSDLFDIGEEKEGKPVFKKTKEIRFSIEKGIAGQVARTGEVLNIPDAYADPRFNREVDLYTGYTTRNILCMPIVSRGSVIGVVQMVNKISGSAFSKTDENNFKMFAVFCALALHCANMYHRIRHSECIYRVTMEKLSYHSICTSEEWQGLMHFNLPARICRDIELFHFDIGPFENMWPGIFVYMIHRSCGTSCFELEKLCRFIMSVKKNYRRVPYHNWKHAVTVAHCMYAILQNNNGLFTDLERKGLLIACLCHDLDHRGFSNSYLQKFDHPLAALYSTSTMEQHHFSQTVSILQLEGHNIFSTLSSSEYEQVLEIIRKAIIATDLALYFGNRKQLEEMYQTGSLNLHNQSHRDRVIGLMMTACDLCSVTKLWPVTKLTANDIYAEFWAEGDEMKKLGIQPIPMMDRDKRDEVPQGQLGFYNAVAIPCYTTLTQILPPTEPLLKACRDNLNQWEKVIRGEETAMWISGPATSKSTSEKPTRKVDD
In words: In vitro assay PDE10A (SPA, 3H-cAMP). Format: biochemical. The conditions noted are these: pIC50 corresponds to the −log IC50 expressed in mol/L; read-out: PDE10A2 pIC50 (converted). How it is done:
Rat recombinant PDE10A (rPDE10A2) was expressed in Sf9 cells using a recombinant rPDE10A baculovirus construct. Cells were harvested after 48 h of infection and the rPDE10A protein was purified by metal chelate chromatography on Ni-sepharose 6FF. Tested compounds were dissolved and diluted in 100% DMSO to a concentration 100 fold of the final concentration in the assay. Compound dilutions (0.4 μl) were added in 384 well plates to 20 μl of incubation buffer (50 mM Tris pH 7.8, 8.3 mM MgCl2, 1.7 mM EGTA). 10 μl of rPDE10A enzyme in incubation buffer was added and the reaction was started by addition of 10 μl substrate to a final concentration of 60 nM cAMP and 0.008 μCi ^3H-cAMP. The reaction was incubated for 60 minutes at room temperature. […] After sedimentation of the beads during 30 minutes the radioactivity was measured in a Perkin Elmer Topcount scintillation counter and results were expressed as cpm. For blanc values the enzyme was omitted from the reaction and replaced by incubation buffer. Control values were obtained by addition of a final concentration of 1% DMSO instead of compound. The same assay principle is applied for the measurement of the affinity of the compound for other members of the PDE family with appropriate modifications in incubation buffer, substrate concentration, incubation time and stop solution.

For `COC(C)(C)Cc1ccc(-c2c(C)nc3c(N4CCOCC4)cc(C4CC4)nn23)cn1` [compound 43, 6-cyclopropyl-3-[6-(2-methoxy-2-methylpropyl)-3-pyridinyl]-2-methyl-8-(4-morpholinyl)-imidazo[1,2-b]pyridazine], in experiment [1] (not further tested), the ED50 is > 2.5 mg/kg. Besides, the IC50 in experiment [2] was 191 nM.

For `COCCOc1ccc(-c2c(C3CC3)nc3c(-c4ccncc4)ccnn23)cn1` [compound 44, 2-cyclopropyl-3-[6-(2-methoxyethoxy)-3-pyridinyl]-8-(4-pyridinyl)-imidazo[1,2-b]pyridazine], the ED50 in experiment [1] (not further tested) was > 2.5 mg/kg. In experiment [2], the IC50 is 45.7 nM.

Regarding `COC(C)(C)Cc1ccc(-c2c(C3CC3)nc3c(N4CCOCC4)ccnn23)cn1` [compound 45, 2-cyclopropyl-3-[6-(2-methoxy-2-methylpropyl)-3-pyridinyl]-8-(4-morpholinyl)-imidazo[1,2-b]pyridazine], the 50% effective dose (ED50) in experiment [1] (not further tested) was > 2.5 mg/kg. Moreover, the IC50 in experiment [2] is 50.1 nM.

Regarding `c1cc(-c2ccnn3c(-c4ccc(N5CCOCC5)nc4)c(C4CC4)nc23)ccn1` [compound 46, 2-cyclopropyl-3-[6-(4-morpholinyl)-3-pyridinyl]-8-(4-pyridinyl)-imidazo[1,2-b]pyridazine], in experiment [1] (not further tested), the ED50 is > 2.5 mg/kg. Moreover, the IC50 in experiment [2] is 17.4 nM.

`COC(C)(C)Cc1ccc(-c2c(C)nc3c(N4CCOCC4)cc(C)nn23)cn1` [compound 47, 3-[6-(2-methoxy-2-methylpropyl)-3-pyridinyl]-2,6-dimethyl-8-(4-morpholinyl)-imidazo[1,2-b]pyridazine]: the ED50 in experiment [1] (not further tested) is > 2.5 mg/kg. Also, in experiment [2], the IC50 was 91.2 nM.

As to `COCCOc1ccc(-c2c(C)nc3c(-c4ccncc4)cc(C)nn23)cn1` [compound 49, 3-[6-(2-methoxyethoxy)-3-pyridinyl]-2,6-dimethyl-8-(4-pyridinyl)-imidazo[1,2-b]pyridazine], the ED50 in experiment [1] (not further tested) is > 2.5 mg/kg. In addition, in experiment [2], the IC50 was 209 nM.

As for `COC(C)(C)Cc1ccc(-c2cnc3c(N4CCOCC4)ccnn23)cn1` [compound 51, 3-[6-(2-methoxy-2-methylpropyl)-3-pyridinyl]-8-(4-morpholinyl)-imidazo[1,2-b]pyridazine], the ED50 in experiment [1] (not further tested) was > 2.5 mg/kg. For the same molecule, the IC50 in experiment [2] was 105 nM.

In the case of `COCCOc1ccc(-c2cnc3c(N4CCOCC4)ccnn23)cn1` [compound 52, 3-[6-(2-methoxyethoxy)-3-pyridinyl]-8-(4-morpholinyl)-imidazo[1,2-b]pyridazine], the ED50 in experiment [1] (not further tested) was > 2.5 mg/kg. The IC50 in experiment [2] is 468 nM.

In the case of `COC(C)(C)Cc1ccc(-c2c(C3CC3)nc3c(N4CCOCC4)cc(C)nn23)cn1` [compound 53, 2-cyclopropyl-3-[6-(2-methoxy-2-methylpropyl)-3-pyridinyl]-6-methyl-8-(4-morpholinyl)-imidazo[1,2-b]pyridazine], in experiment [1] (not further tested), the 50% effective dose (ED50) was > 2.5 mg/kg. Besides, in experiment [2], the IC50 is 214 nM.

On to `COC(C)(C)Cc1ccc(-c2c(C3CC3)nc3c(-c4ccncc4)cc(C)nn23)cn1` [compound 55, 2-cyclopropyl-3-[6-(2-methoxy-2-methylpropyl)-3-pyridinyl]-6-methyl-8-(4-pyridinyl)-imidazo[1,2-b]pyridazine], for which, in experiment [1] (not further tested), the ED50 is > 2.5 mg/kg. Also, in experiment [2], the IC50 was 38 nM.

On to `COCCc1ccc(-c2c(C3CC3)nc3c(-c4ccncc4)cc(C)nn23)cn1` [compound 56, 2-cyclopropyl-3-[6-(2-methoxyethyl)-3-pyridinyl]-6-methyl-8-(4-pyridinyl)-imidazo[1,2-b]pyridazine], for which the ED50 in experiment [1] (not further tested) is > 2.5 mg/kg. In experiment [2], the IC50 was 51.3 nM.

As for `Cc1nc2c(-c3ccncc3)cc(C3CC3)nn2c1-c1ccc(N2CCOCC2)nc1` [compound 58, 6-cyclopropyl-2-methyl-3-[6-(4-morpholinyl)-3-pyridinyl]-8-(4-pyridinyl)-imidazo[1,2-b]pyridazine], the ED50 in experiment [1] (not further tested) was > 2.5 mg/kg. Further, the IC50 in experiment [2] is 186 nM.

On to `COCCOc1ccc(-c2c(C)nc3c(-c4ccncc4)cc(C4CC4)nn23)cn1` [compound 59, 6-cyclopropyl-3-[6-(2-methoxyethoxy)-3-pyridinyl]-2-methyl-8-(4-pyridinyl)-imidazo[1,2-b]pyridazine], for which, in experiment [1] (not further tested), the 50% effective dose (ED50) is > 2.5 mg/kg. Besides, in experiment [2], the IC50 was 234 nM.

Take `COC(C)(C)Cc1ccc(-c2cnc3c(-c4ccncc4)ccnn23)cn1` [compound 60, 3-[6-(2-methoxy-2-methylpropyl)-3-pyridinyl]-8-(4-pyridinyl)-imidazo[1,2-b]pyridazine]: in experiment [1] (not further tested), the ED50 was > 2.5 mg/kg. Also, in experiment [2], the IC50 is 191 nM.

Consider `COCCc1ccc(-c2c(C)nc3c(N4CCOCC4)cc(C(F)(F)F)nn23)cn1` [compound 64, 3-[6-(2-methoxyethyl)-3-pyridinyl]-2-methyl-8-(4-morpholinyl)-6-(trifluoromethyl)-imidazo[1,2-b]pyridazine], for which the ED50 in experiment [1] (po, * not soluble, tested orally as a suspension) is > 2.5 mg/kg. Further, the IC50 in experiment [2] is 479 nM.

In the case of `COCCOc1ccc(-c2c(C)nc3c(N4CCOCC4)cc(C)nn23)cn1` [compound 69, 3-[6-(2-methoxyethoxy)-3-pyridinyl]-2,6-dimethyl-8-(4-morpholinyl)-imidazo[1,2-b]pyridazine], the median effective dose (ED50) in experiment [1] (not further tested) was > 2.5 mg/kg. Also, the IC50 in experiment [2] was 324 nM.

In the case of `Cc1cc(-c2ccncc2)c2nc(C)c(-c3ccc(N4CCOCC4)nc3)n2n1` [compound 70, 2,6-dimethyl-3-[6-(4-morpholinyl)-3-pyridinyl]-8-(4-pyridinyl)-imidazo[1,2-b]pyridazine], the ED50 in experiment [1] (not further tested) is > 2.5 mg/kg. In experiment [2], the IC50 is 126 nM.

For the molecule `COCCOc1ccc(-c2c(C3CC3)nc3c(N4CCOCC4)ccnn23)cn1` [compound 73, 2-cyclopropyl-3-[6-(2-methoxyethoxy)-3-pyridinyl]-8-(4-morpholinyl)-imidazo[1,2-b]pyridazine], in experiment [1] (not further tested), the ED50 was > 2.5 mg/kg. In experiment [2], the IC50 was 97.7 nM.

As to `Cc1nc2c(N3CCOCC3)ccnn2c1-c1ccc(CCOC(C)C)nc1` [compound 76, 2-methyl-3-[6-[2-(1-methylethoxy)ethyl]-3-pyridinyl]-8-(4-morpholinyl)-imidazo[1,2-b]pyridazine], in experiment [1] (not further tested), the ED50 was > 2.5 mg/kg. Moreover, in experiment [2], the IC50 is 50.1 nM.

Consider `Cc1nc2c(N3CCOCC3)ccnn2c1-c1ccc(CCN2CCCC2)nc1` [compound 77, 2-methyl-8-(4-morpholinyl)-3-[6-[2-(1-pyrrolidinyl)ethyl]-3-pyridinyl]-imidazo[1,2-b]pyridazine], for which the ED50 in experiment [1] (not further tested) was > 2.5 mg/kg. Further, in experiment [2], the IC50 was 129 nM.

Consider `Cc1nc2c(N3CCOCC3)cc(C3CC3)nn2c1-c1ccc(C2CCOCC2)nc1` [compound 78, 6-cyclopropyl-2-methyl-8-(4-morpholinyl)-3-[6-(tetrahydro-2H-pyran-4-yl)-3-pyridinyl]-imidazo[1,2-b]pyridazine], for which the ED50 in experiment [1] (not further tested) is > 2.5 mg/kg. The IC50 in experiment [2] is 123 nM.

On to `Cc1cc(N2CCOCC2)c2nc(C3CC3)c(-c3ccc(C4CCOCC4)nc3)n2n1` [compound 79, 2-cyclopropyl-6-methyl-8-(4-morpholinyl)-3-[6-(tetrahydro-2H-pyran-4-yl)-3-pyridinyl]-imidazo[1,2-b]pyridazine], for which, in experiment [1] (not further tested), the ED50 is > 2.5 mg/kg. In experiment [2], the IC50 was 263 nM.

For `Cc1cc(-c2ccncc2)c2nc(C3CC3)c(-c3ccc(C4CCOCC4)nc3)n2n1` [compound 80, 2-cyclopropyl-6-methyl-8-(4-pyridinyl)-3-[6-(tetrahydro-2H-pyran-4-yl)-3-pyridinyl]-imidazo[1,2-b]pyridazine], the ED50 in experiment [1] (not further tested) was > 2.5 mg/kg. For the same molecule, the IC50 in experiment [2] was 44.7 nM.

For orientation: ED50 means the dose that gives a 50% effect, or the effect in half of the subjects. Read a low ED50 as greater potency.
